Data on 1 molecule can be found in PMC11129349, “Synthesis and Evaluation of a Novel PET Radioligand for Imaging Glutaminyl Cyclase Activity as a Biomarker for Detecting Alzheimer’s Disease” (ACS Sensors, 2024).

The assay has as its target T1, glutaminyl cyclase (QC; human recombinant glutaminyl peptide cyclotransferase) (Homo sapiens, UniProt Q16769).
T1 construct: gene QPCT
Kind of assay: PGPEP1-coupled fluorescence assay with H-Gln-AMC substrate, recombinant human QC. It counts as biochemical.

The structures appear in SMILES notation. pIC50: −log10 of the molar value.

T1 sequence (Q16769 29-361): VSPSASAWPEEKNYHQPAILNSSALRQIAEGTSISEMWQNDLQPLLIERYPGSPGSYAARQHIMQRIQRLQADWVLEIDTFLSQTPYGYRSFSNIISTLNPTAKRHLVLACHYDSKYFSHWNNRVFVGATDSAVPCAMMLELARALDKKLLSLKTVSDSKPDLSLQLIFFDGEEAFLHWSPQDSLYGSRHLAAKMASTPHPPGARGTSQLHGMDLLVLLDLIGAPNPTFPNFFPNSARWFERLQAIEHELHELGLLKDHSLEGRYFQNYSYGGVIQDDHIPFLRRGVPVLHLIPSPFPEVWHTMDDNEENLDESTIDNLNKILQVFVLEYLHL

`O=C1NC[C@H](c2ccc(OCCCF)cc2)N1c1ccc2[nH]cnc2c1` [compound 8, S-[19F]PB0822]: the pIC50 (usually the IC50 on a negative log10 scale, so that one unit is a factor of ten) is 7.25.
